Like-named read-outs stand apart in the source and are kept apart here.
Columns and labels:
[1] = system: circulating lymphocytes; assay: Lymphopenia assay: measurement of circulating lymphocytes after oral gavage; assay type: in vivo, Mice (C57bl/6 male); conditions: for ED50: Mus musculus, Lymphocyte, po, read-out: Lymphopenia (ED50 mg/kg)
Protocol: Measurement of circulating lymphocytes: Compounds were dissolved in 30% HPCD. Mice (C57bl/6 male, 6-10 week-old) were administered 0.5 and 5 mg/kg of a compound via oral gavage. 30% HPCD was included as a negative control.
Blood was collected from the retro-orbital sinus 5 and 24 hours after drug administration under short isoflurane anesthesia. Whole blood samples were subjected to hematology analysis. Peripheral lymphocyte counts were determined using an automated analyzer (HEMAVET™ 3700). Three mice were used to assess the lymphocyte depletion activity of each compound screened.

[2] = biological target: T1, human S1P3 receptor (Homo sapiens, UniProt Q99500); assay: Calcium mobilization assay, recombinant CHEM cells expressing human S1P3; assay type: cell-based; conditions: FLIPR
T1 construct: host or cells: recombinant CHEM cells
Protocol: Compounds that were not specific for the S1P1 receptor, can have activity for other S1P receptor subtypes, e.g., S1P2, S1P3, S1P4, or S1P5, and can cause undesirable side effects. Accordingly, compounds were tested to identify those that were specific for S1P1 activity and had little or no activity, or are antagonists of, S1P3 activity. Accordingly, the test compounds were tested in a calcium mobilization assay to determine agonist activity at either the human S1P1 or human S1P3 receptor, and antagonist activity only at the human S1P3 receptor. The procedure was essentially as described (with modifications described below) in Davis et al. (2005) Journal of Biological Chemistry, vol. 280, pp. 9833-9841, which is incorporated by reference in its entirety. Calcium mobilization assays were performed in recombinant CHEM cells expressing human S1P1 or S1P3 purchased from Millipore (Billerica, Mass.). To detect free intracellular calcium, S1P1 or S1P3 cells were loaded with FLIPR Calcium 4 dye from Molecular Devices (Sunnyvale, Calif.). Cells were imagined for calcium mobilization using a FLIPR^TETRA equipped with a 96-well dispense head.

[3] = mice, oral gavage 0.5 and 5 mg/kg in 30% HPCD, blood 5 and 24 hours after administration

T1 sequence (Q99500 whole entry): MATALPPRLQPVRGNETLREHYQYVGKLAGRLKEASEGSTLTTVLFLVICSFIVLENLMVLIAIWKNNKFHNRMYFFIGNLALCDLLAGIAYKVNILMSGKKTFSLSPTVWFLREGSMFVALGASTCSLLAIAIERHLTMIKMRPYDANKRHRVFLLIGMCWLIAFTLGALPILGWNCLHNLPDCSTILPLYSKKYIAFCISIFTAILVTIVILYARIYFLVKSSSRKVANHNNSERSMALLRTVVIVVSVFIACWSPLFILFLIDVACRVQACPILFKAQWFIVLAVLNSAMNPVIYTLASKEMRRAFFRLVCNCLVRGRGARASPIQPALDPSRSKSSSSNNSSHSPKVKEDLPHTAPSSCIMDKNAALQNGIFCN

Compound	ED50 [1, 3] [mg/kg]	further results
CC(N)(CO)c1ccc2cc(O[C@H]3CC[C@H](C(C)(C)C)CC3)ccc2n1 (relative stereo) [Example 18, 2-Amino-2-[6-(trans-4-tert-butyl-cyclohexyloxy)-quinolin-2-yl]-propan-1-ol]	–	Lymphopenia (ED50 mg/kg) [1, 3]: 0.5 to 5 mg/kg
CC(N)(CO)c1ccc2c(C(F)(F)F)c(O[C@H]3CC[C@H](C(C)(C)C)CC3)ccc2n1 (relative stereo) [Example 21, 2-Amino-2-[6-(trans-4-tert-butyl-cyclohexyloxy)-5-trifluoromethyl-quinolin-2-yl]-propan-1-ol]	–	ED50 [1]: < 0.5 mg/kg
CC(N)(CO)c1ccc2cc(O[C@H]3CC[C@H](C(C)(C)C)CC3)ccc2n1 (relative stereo) [Example 23, 2-Amino-2-[6-(trans-4-tert-butyl-cyclohexyloxy)-quinolin-2-yl]-propan-1-ol]	–	Lymphopenia (ED50 mg/kg) [1, 3]: <0.5 mg/kg
CC(N)(CO)c1ccc2cc(O[C@H]3CC[C@H](C(C)(C)C)CC3)ccc2n1 (relative stereo) [Example 24, 2-Amino-2-[6-(trans-4-tert-butyl-cyclohexyloxy)-quinolin-2-yl]-propan-1-ol]	–	Lymphopenia (ED50 mg/kg) [1, 3]: >5 mg/kg
CC(N)(CO)c1ccc2c(C(F)(F)F)c(O[C@H]3CC[C@H](C(C)(C)C)CC3)ccc2n1 (relative stereo) [Example 26, 2-Amino-2-[6-(trans-4-tert-butyl-cyclohexyloxy)-5-trifluoromethyl-quinolin-2-yl]-propan-1-ol]	–	Lymphopenia (ED50 mg/kg) [1, 3]: <0.5 mg/kg
CC(N)(CO)c1ccc2c(C(F)(F)F)c(O[C@H]3CC[C@H](C(C)(C)C)CC3)ccc2n1 (relative stereo) [Example 27, 2-Amino-2-[6-(trans-4-tert-butyl-cyclohexyloxy)-5-trifluoromethyl-quinolin-2-yl]-propan-1-ol]	–	Lymphopenia (ED50 mg/kg) [1, 3]: >5 mg/kg
CC(N)(CO)c1ccc2nc(O[C@H]3CC[C@H](C(C)(C)C)CC3)ccc2c1 (relative stereo) [Example 78, 2-amino-2-(2-(trans-4-tert-butylcyclohexyloxy)quinolin-6-yl)propan-1-ol]	> 5	–
CC(C)(C)[C@H]1CC[C@H](Oc2ccc3cc([C@](C)(N)CO)ccc3n2)CC1 (single isomer, unassigned) [Example 79A]	> 5	–
CC(C)(C)[C@H]1CC[C@H](Oc2ccc3cc([C@@](C)(N)CO)ccc3n2)CC1 (single isomer, unassigned) [Example 79]	> 5	–
CCCCCCCOc1ccc2nc(C(C)(N)CO)ccc2c1 (stereo not shown) [Example 38, 2-amino-2-(6-(heptyloxy)quinolin-2-yl)propan-1-ol]	0.5 to 5	–
CCCCCCCOc1ccc2nc([C@@](C)(N)CO)ncc2c1 [Example 50, (R)-2-Amino-2-(6-heptyloxyquinazolin-2-yl)propan-1-ol]	0.5 to 5	–
CC(C)(C)[C@H]1CC[C@H](Oc2ccc3nc([C@@](C)(N)CO)ncc3c2C(F)(F)F)CC1 [Example 61, (R)-2-Amino-2-(6-(trans-4-tert-butylcyclohexyloxy)-5-(trifluoromethyl)quinazolin-2-yl)propan-1-ol]	0.5 to 5	–
CC(C)(C)[C@H]1CC[C@H](Oc2ccc3c(c2C(F)(F)F)CC[C@H]([C@@](C)(N)CO)C3)CC1 [Example 71, (R)-2-amino-2-((S)-6-(trans-4-tert-butylcyclohexyloxy)-5-(trifluoromethyl)-1,2,3,4-tetrahydronaphthalen-2-yl)propan-1-ol]	< 0.5	–
CC(C)(C)[C@H]1CC[C@H](Oc2cc3c(cc2C(F)(F)F)C[C@@H]([C@@](C)(N)CO)CC3)CC1 [Example 71A, (R)-2-amino-2-((S)-6-(trans-4-tert-butylcyclohexyloxy)-7-(trifluoromethyl)-1,2,3,4-tetrahydronaphthalen-2-yl)propan-1-ol]	> 5	–
CCCCCCCOc1ccc2cc(C(C)(N)CO)cnc2c1 (stereo not shown) [Example 91, 2-amino-2-(7-(heptyloxy)quinolin-3-yl)propan-1-ol]	0.5 to 5	–
CCCCCCCCc1ccc2nc(C(C)(N)CO)sc2c1 (stereo not shown) [Example 99, 2-amino-2-(6-octylbenzo[d]thiazol-2-yl)propan-1-ol]	> 5	–
CCCCCCCOc1ccc2cc(C(C)(N)CO)ccc2n1 (stereo not shown) [Example 103, 2-amino-2-(2-(heptyloxy)quinolin-6-yl)propan-1-ol]	0.5 to 5	–
NC(CO)(CO)C1CCc2cc(Sc3cccc(OCc4ccccc4)c3)ccc2C1 (stereo not shown) [Example 113, 2-Amino-2-(6-(3-(benzyloxy)phenylthio)-1,2,3,4-tetrahydronaphthalen-2-yl)propane-1,3-diol]	< 0.5	–
CCCCCCCCCCCCC/C=C/[C@@H](O)[C@@H](N)COP(=O)(O)O [Example S1P, Sphingosine 1-phosphate]	–	S1P3 agonist activity [2]: full S1P3 agonist
